Measurements as given in BindingDB's records for doi:10.1016/j.bmcl.2007.01.039 (Merck Research Laboratories, 2007).

Target: Dipeptidyl peptidase 2 (Homo sapiens, UniProt Q9UHL4)
Test: Dipeptidyl Peptidase Inhibition Assay

Row | IC50 [µM] | Structure (SMILES)
1 | > 100 | C[C@@H]1C(=O)N[C@@H](C(F)(F)F)CCN1C(=O)C[C@H](N)Cc1cc(F)c(F)cc1F [(3R,7R)-4-[(3R)-3-amino-4-(2,4,5-trifluorophenyl)butanoyl]-3-methyl-7-(trifluoromethyl)-1,4-diazepan-2-one]
2 | > 100 | C[C@@H]1C(=O)NCCCN1C(=O)C[C@H](N)Cc1cc(F)ccc1F [(3R)-4-[(3R)-3-amino-4-(2,5-difluorophenyl)butanoyl]-3-methyl-1,4-diazepan-2-one]
